Assay results reported in PubChem BioAssay AID248 (DTP/NCI, 2004).
Where “and” joins values, the source holds several entries; their conditions need not be identical. Identical values can stand only once. Toxic doses and inconclusive results are not listed. Rule as the data show it: active = T/C of 150% or more; inactive = T/C below 125%.

Test system: L1210 leukemia ip in BDF1 mice, survival T/C
Test: NCI In Vivo Anticancer Drug Screen. Data for tumor model L1210 Leukemia (intraperitoneal) in B6D2F1 (BDF1) mice
Settings: endpoint: mean survival time, higher = longer survival
Outline: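 Tumor cells were implanted, animals were treated, and survival was followed. The result divides the treated measurement by the vehicle-control measurement.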

[1] = dose: 25.0 mg/kg/injection, schedule: Q04DX003 (ip), vehicle: saline with Tween-80
[2] = dose: 50.0 mg/kg/injection, schedule: Q04DX003 (ip), vehicle: saline with Tween-80
[3] = dose: 100.0 mg/kg/injection, schedule: Q04DX003 (ip), vehicle: saline with Tween-80
[4] = dose: 100.0 mg/kg/injection, schedule: Q01DX001 (ip), vehicle: saline
[5] = dose: 200.0 mg/kg/injection, schedule: Q01DX001 (ip), vehicle: saline
[6] = dose: 400.0 mg/kg/injection, schedule: Q01DX001 (ip), vehicle: saline
[7] = dose: 75.0 mg/kg/injection, schedule: Q04DX003 (ip), vehicle: Klucel (hydroxypropylcellulose) (HPC)
[8] = dose: 150.0 mg/kg/injection, schedule: Q04DX003 (ip), vehicle: Klucel (hydroxypropylcellulose) (HPC)
[9] = dose: 300.0 mg/kg/injection, schedule: Q04DX003 (ip), vehicle: Klucel (hydroxypropylcellulose) (HPC)
[10] = dose: 50.0 mg/kg/injection, schedule: Q01DX001 (ip), vehicle: saline
[11] = dose: 100.0 mg/kg/injection, schedule: Q01DX001 (ip), vehicle: carboxymethylcellulose (CMC)
[12] = dose: 400.0 mg/kg/injection, schedule: Q01DX001 (ip), vehicle: carboxymethylcellulose (CMC)
[13] = dose: 12.5 mg/kg/injection, schedule: Q01DX009 (ip), vehicle: saline with Tween-80
[14] = dose: 25.0 mg/kg/injection, schedule: Q01DX009 (ip), vehicle: saline with Tween-80
[15] = dose: 200.0 mg/kg/injection, schedule: Q01DX001 (ip), vehicle: carboxymethylcellulose (CMC)
[16] = dose: 50.0 mg/kg/injection, schedule: Q01DX009 (ip), vehicle: saline with Tween-80

Measured: T/C

O=[N+]([O-])c1ccc(OCc2ccccc2)c(Cl)c1
inactive: [1] 102 % of control | [2] 96 % of control | [3] 98 % of control and 105 % of control

CCCCCCCCCCCCCCCOc1ccc(C=Nc2ccc(C)cc2)cc1
inactive: dose: 100.0 mg/kg/injection, schedule: Q04DX003 (ip), vehicle: Klucel (hydroxypropylcellulose) (HPC) 93 % of control | dose: 200.0 mg/kg/injection, schedule: Q04DX003 (ip), vehicle: Klucel (hydroxypropylcellulose) (HPC) 102 % of control | dose: 400.0 mg/kg/injection, schedule: Q04DX003 (ip), vehicle: Klucel (hydroxypropylcellulose) (HPC) 102 % of control

Clc1nc(Cl)c(CBr)c(Cl)n1
inactive: dose: 1.0 mg/kg/injection, schedule: Q01DX Z (ip), vehicle: carboxymethylcellulose (CMC) 96 % of control | dose: 2.0 mg/kg/injection, schedule: Q01DX Z (ip), vehicle: carboxymethylcellulose (CMC) 96 % of control | dose: 4.0 mg/kg/injection, schedule: Q01DX Z (ip), vehicle: carboxymethylcellulose (CMC) 96 % of control | dose: 8.0 mg/kg/injection, schedule: Q01DX Z (ip), vehicle: carboxymethylcellulose (CMC) 94 % of control | dose: 10.0 mg/kg/injection, schedule: Q01DX001 (ip), vehicle: carboxymethylcellulose (CMC) 96 % of control | dose: 16.0 mg/kg/injection, schedule: Q01DX009 (ip), vehicle: carboxymethylcellulose (CMC) 103 % of control | dose: 20.0 mg/kg/injection, schedule: Q01DX001 (ip), vehicle: carboxymethylcellulose (CMC) 93 % of control | dose: 40.0 mg/kg/injection, schedule: Q01DX001 (ip), vehicle: carboxymethylcellulose (CMC) 93 % of control

CC(=O)OCC1OC(Sc2ccc([N+](=O)[O-])cc2[N+](=O)[O-])C(OC(C)=O)C(OC(C)=O)C1OC(C)=O (centres undefined)
inactive: dose: 100.0 mg/kg/injection, schedule: Q01DX001 (ip), vehicle: saline with Tween-80 96 % of control | dose: 200.0 mg/kg/injection, schedule: Q01DX001 (ip), vehicle: saline with Tween-80 101 % of control | dose: 400.0 mg/kg/injection, schedule: Q01DX001 (ip), vehicle: saline with Tween-80 93 % of control

O=c1c(N=Nc2ccc(Br)cc2)c(O)n(-c2ccccc2)c(=S)n1-c1ccccc1
inactive: dose: 100.0 mg/kg/injection, schedule: Q01DX001 (ip), vehicle: Klucel (hydroxypropylcellulose) (HPC) 105 % of control | dose: 200.0 mg/kg/injection, schedule: Q01DX001 (ip), vehicle: Klucel (hydroxypropylcellulose) (HPC) 102 % of control | dose: 400.0 mg/kg/injection, schedule: Q01DX001 (ip), vehicle: Klucel (hydroxypropylcellulose) (HPC) 102 % of control

NC(=O)Oc1ccccc1Cl
inactive: [7] 104 % of control | [8] 100 % of control | [9] 105 % of control

COc1nc(=O)n(C2CCCO2)cc1I (centres undefined)
inactive: [10] 95 % of control | [4] 95 % of control | [5] 90 % of control

CC(C)c1oc(=O)cc2c1[C@@H](O)[C@H]1OC(=O)[C@@]3(C)[C@@H](O)[C@H]4O[C@H]4[C@@]2(C)[C@@H]13
inactive: dose: 5.0 mg/kg/injection, schedule: Q01DX001 (ip), vehicle: steriod suspending solution 105 % of control | dose: 10.0 mg/kg/injection, schedule: Q01DX001 (ip), vehicle: steriod suspending solution 98 % of control | dose: 20.0 mg/kg/injection, schedule: Q01DX001 (ip), vehicle: steriod suspending solution 110 % of control | dose: 40.0 mg/kg/injection, schedule: Q01DX001 (ip), vehicle: steriod suspending solution 104 % of control

CN1C(=O)CC(/C=C\[N+](=O)[O-])c2ccccc21 (centres undefined)
inactive: [11] 94 % of control | [12] 104 % of control

CNC(=O)n1ncc2ccc([N+](=O)[O-])cc21
inactive: [4] 107 % of control | [5] 107 % of control | [6] 102 % of control

CC1(Br)OC(=O)C(C)(Br)OC1=O (centres undefined)
inactive: dose: 100.0 mg/kg/injection, schedule: Q04DX003 (ip), vehicle: saline 96 % of control | dose: 200.0 mg/kg/injection, schedule: Q04DX003 (ip), vehicle: saline 96 % of control

CCC(/C=C1\Oc2ccc(-c3ccccc3)cc2N1CC)=C\c1oc2ccc(-c3ccccc3)cc2[n+]1CC
inactive: dose: 0.1 mg/kg/injection, schedule: Q01DX009 (ip), vehicle: other 102 % of control | dose: 0.3 mg/kg/injection, schedule: Q01DX009 (ip), vehicle: other 110 % of control | dose: 0.6 mg/kg/injection, schedule: Q01DX009 (ip), vehicle: other 116 % of control | dose: 0.62 mg/kg/injection, schedule: Q01DX009 (ip), vehicle: saline 111 % of control | dose: 1.2 mg/kg/injection, schedule: Q01DX009 (ip), vehicle: other 116 % of control | dose: 1.25 mg/kg/injection, schedule: Q01DX009 (ip), vehicle: saline 108 % of control | dose: 2.5 mg/kg/injection, schedule: Q01DX009 (ip), vehicle: saline 114 % of control | dose: 2.6 mg/kg/injection, schedule: Q01DX009 (ip), vehicle: other 122 % of control | dose: 5.0 mg/kg/injection, schedule: Q01DX009 (ip), vehicle: saline 103 % of control | dose: 19.0 mg/kg/injection, schedule: Q01DX001 (ip), vehicle: other 109 % of control

O=Cc1nc2ccccc2c2ccccc12
inactive: [3] 89 % of control | dose: 200.0 mg/kg/injection, schedule: Q04DX003 (ip), vehicle: saline with Tween-80 94 % of control | dose: 400.0 mg/kg/injection, schedule: Q04DX003 (ip), vehicle: saline with Tween-80 103 % of control

N#CC1(C#N)C2C=CC(C3CC=CC32)C1(C#N)C#N (centres undefined)
inactive: [13] 101 % of control | [14] 97 % of control | [1] 108 % of control | [2] 105 % of control | [3] 93 % of control

CCCCCCCCCCCCCCCN(CCCl)CCCl
inactive: [11] 93 % of control | [15] 96 % of control

CC(C)(Oc1ccc(Cl)cc1)C(=O)NCCCCCC(=O)O
inactive: [16] 98 % of control | dose: 100.0 mg/kg/injection, schedule: Q01DX009 (ip), vehicle: saline with Tween-80 98 % of control | dose: 200.0 mg/kg/injection, schedule: Q01DX009 (ip), vehicle: saline with Tween-80 95 % of control

O=C(c1ccccc1CO)N1CCCCC1
inactive: dose: 100.0 mg/kg/injection, schedule: Q04DX002 (ip), vehicle: Klucel (hydroxypropylcellulose) (HPC) 112 % of control | dose: 200.0 mg/kg/injection, schedule: Q04DX002 (ip), vehicle: Klucel (hydroxypropylcellulose) (HPC) 105 % of control

CNC(=S)N/N=C/C(CO)=N\NC(=S)NC
inactive: dose: 50.0 mg/kg/injection, schedule: Q01DX001 (ip), vehicle: carboxymethylcellulose (CMC) 101 % of control | [11] 103 % of control | [15] 112 % of control | [12] 97 % of control

CCC(C(=O)OC)C(=O)c1ccccc1 (centres undefined)
inactive: [10] 107 % of control | [4] 102 % of control | [5] 107 % of control | [6] 96 % of control

Cc1cccc(SC(=O)Nc2ccc(Cl)cc2C)c1
inactive: [13] 91 % of control | [14] 95 % of control | [16] 119 % of control

CC(=O)C(C(C)=O)c1cc(NS(=O)(=O)N(C)C)ccc1NS(=O)(=O)N(C)C
inactive: [7] 89 % of control | [8] 108 % of control | [9] 96 % of control
